Experimental findings from patent US7205382B2, “Peptides, the production and use thereof for binding immunoglobulins” (Fresenius Medical Care Affina GmbH, priority 2000, dated 2007) are described below.

What all share (type): binding
Common to all, as to set-up: key: No binding of immunoglobulin for the defined peptide variant, detection negative: 0; Binding of immunoglobulin for the defined peptide variant, detection positive: +

One test concerns human IgG-Fc. Put plainly: Cellulose-immobilized 13-mer peptide variants incubated with human IgG-Fc, anti-human IgG-AP detection. The note with it: IgG-Fc 1 μg/ml in blocking buffer, 3 h room temperature. In a few lines:
(§1)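 Membrane-bound peptides, spaced by two β-alanines, are probed with 1 μg/ml IgG-Fc or 1:10,000 serum for 3 h at room temperature; blocking buffer alone acts as control. Detection uses anti-human IgG-AP (1.2 μg/ml) and NBT/BCIP.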

In test [1] the test system is immunoglobulins in human plasma. Kind of test: Cellulose-immobilized 13-mer peptide variants incubated with human plasma, anti-human IgG-AP detection. The note with it: human plasma as sample, diluted 1:10,000 in blocking buffer, 3 h room temperature. The gist of the method: as §1
A further test relates to serum albumin. Kind of test: Cellulose-immobilized 13-mer peptide variants incubated with serum albumin (negative control), anti-human IgG-AP detection. As to conditions: blocking buffer without addition, 3 h room temperature. The gist of the method:
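Peptides on cellulose via a (βA)(βA) spacer were blocked in T-TBS (pH 8.0) with 5% saccharose and 4% BSA, then exposed for 3 h at room temperature to IgG-Fc (1 μg/ml), serum diluted 1:10,000, or blocking buffer alone. Bound IgG was detected with AP-anti-human IgG (1.2 μg/ml) and NBT/BCIP colour development.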

Bridge positions count the residues as written; N and C are the ends. Square brackets hold non-standard residues; d marks the D form. Ends that are not written are not given here. cellulose = not defined here; βAla = NCCC(=O)O

On to “05P: cellulose-bound 13-mer variant DCAWPLGELVWCT-(βA)(βA) (disulfide 2-12 (inferred); not fully specified (N-terminus, C-terminus); printed as DCAWPLGELVWCT-(βA)(βA); also: cellulose-bound)”, for which, in the test on human IgG-Fc, the “Result for incubation with human IgG-Fc (immunoglobulin binding detection)” value (shortened to “Result for incubation with human IgG-Fc”) turned out to be 0. The “Result for incubation with human plasma (immunoglobulin binding detection)” value (shortened to “Result for incubation with human plasma”) in test [1] was found to be 0. For the same substance, in the test with serum albumin, the “Result for incubation with serum albumin (immunoglobulin binding detection)” value (shortened to “Result for incubation with serum albumin”) is on record as 0.
With “09C: cellulose-bound 13-mer variant DCAWHLGECVWCT-(βA)(βA) (DCAWHLGECVWCT-{βAla-βAla-cellulose}; not fully specified; printed as DCAWHLGECVWCT-(βA)(βA); cysteine pairing not given here; reading uncertain)”, in the test with human IgG-Fc, the “Result for incubation with human IgG-Fc” value was determined as 0. In addition, in test [1], the “Result for incubation with human plasma” value was 0. Moreover, the “Result for incubation with serum albumin” value in the test on serum albumin turned out to be 0.
As for “09W: cellulose-bound 13-mer variant DCAWHLGEWVWCT-(βA)(βA) (DCAWHLGEWVWCT-{βAla-βAla-cellulose}; disulfide 2-12 (inferred); reading uncertain; also: printed as DCAWHLGEWVWCT-(βA)(βA))”, the “Result for incubation with human IgG-Fc” value in the test on human IgG-Fc was 0. Moreover, the “Result for incubation with human plasma” value in test [1] is 0. Also, in the test with serum albumin, the “Result for incubation with serum albumin” value was 0.
For the substance “02W: cellulose-bound 13-mer variant DWAWHLGELVWCT-(βA)(βA) (DWAWHLGELVWCT[βAla][βAla]; not fully specified; printed as DWAWHLGELVWCT-(βA)(βA); also: cellulose-bound)”, the “Result for incubation with human IgG-Fc” value in the test on human IgG-Fc amounted to 0. Besides, in test [1], the “Result for incubation with human plasma” value turned out to be 0. Also, in the test on serum albumin, the “Result for incubation with serum albumin” value turned out to be 0.
For the substance “04Q: cellulose-bound 13-mer variant DCAQHLGELVWCT-(βA)(βA) (disulfide 2-12 (inferred); not fully specified (N-terminus, C-terminus); printed as DCAQHLGELVWCT-(βA)(βA); also: cellulose-bound)”, in the test on human IgG-Fc, the “Result for incubation with human IgG-Fc” value is “+”. The “Result for incubation with human plasma” value in test [1] was found to be 0. In addition, the “Result for incubation with serum albumin” value with serum albumin worked out at 0.
On to “11P: cellulose-bound 13-mer variant DCAWHLGELVPCT-(βA)(βA)”, for which the “Result for incubation with human IgG-Fc” value with human IgG-Fc amounted to 0. Further, the “Result for incubation with human plasma” value in test [1] is reported as 0. In addition, the “Result for incubation with serum albumin” value in the test on serum albumin was determined as 0.
Take “03G: cellulose-bound 13-mer variant DCGWHLGELVWCT-(βA)(βA) (DCGWHLGELVWCT-{βAla-βAla-cellulose}; disulfide 2-12 (inferred); reading uncertain; also: printed as DCGWHLGELVWCT-(βA)(βA))”: the “Result for incubation with human IgG-Fc” value in the test on human IgG-Fc is listed as 0. The “Result for incubation with human plasma” value in test [1] is recorded as 0. Besides, the “Result for incubation with serum albumin” value with serum albumin is listed as 0.
Take “09N: cellulose-bound 13-mer variant DCAWHLGENVWCT-(βA)(βA) (DCAWHLGENVWCT-{βAla-βAla-cellulose}; disulfide 2-12 (inferred); reading uncertain; also: printed as DCAWHLGENVWCT-(βA)(βA))”: in the test with human IgG-Fc, the “Result for incubation with human IgG-Fc” value was 0. In test [1], the “Result for incubation with human plasma” value was determined as 0. In addition, the “Result for incubation with serum albumin” value with serum albumin worked out at 0.
For the substance “03H: cellulose-bound 13-mer variant DCHWHLGELVWCT-(βA)(βA) (DCHWHLGELVWCT-{βAla-βAla-cellulose}; disulfide 2-12 (inferred); reading uncertain; also: printed as DCHWHLGELVWCT-(βA)(βA))”, the “Result for incubation with human IgG-Fc” value with human IgG-Fc is 0. Further, in test [1], the “Result for incubation with human plasma” value came to 0. In addition, in the test with serum albumin, the “Result for incubation with serum albumin” value was 0.
With “02M: cellulose-bound 13-mer variant DMAWHLGELVWCT-(βA)(βA) (DMAWHLGELVWCT[βAla][βAla]; not fully specified; printed as DMAWHLGELVWCT-(βA)(βA); also: cellulose-bound)”, in the test with human IgG-Fc, the “Result for incubation with human IgG-Fc” value is 0. Moreover, the “Result for incubation with human plasma” value in test [1] is 0. The “Result for incubation with serum albumin” value in the test on serum albumin came out at 0.
As to “07P: cellulose-bound 13-mer variant DCAWHLPELVWCT-(βA)(βA) (DCAWHLPELVWCT-{βAla-βAla-cellulose}; disulfide 2-12 (inferred); not fully specified (N-terminus); printed as DCAWHLPELVWCT-(βA)(βA); reading uncertain)”, in the test on human IgG-Fc, the “Result for incubation with human IgG-Fc” value is given as 0. Besides, the “Result for incubation with human plasma” value in test [1] was found to be 0. In addition, in the test with serum albumin, the “Result for incubation with serum albumin” value worked out at 0.
As for “11F: cellulose-bound 13-mer variant DCAWHLGELVFCT-(βA)(βA) (DCAWHLGELVFCT-{βAla-βAla-cellulose}; disulfide 2-12 (inferred); reading uncertain; also: printed as DCAWHLGELVFCT-(βA)(βA))”, in the test on human IgG-Fc, the “Result for incubation with human IgG-Fc” value amounted to 0. Further, the “Result for incubation with human plasma” value in test [1] amounted to 0. In addition, the “Result for incubation with serum albumin” value with serum albumin stood at 0.
For “02Y: cellulose-bound 13-mer variant DYAWHLGELVWCT-(βA)(βA) (DYAWHLGELVWCT[βAla][βAla]; not fully specified; printed as DYAWHLGELVWCT-(βA)(βA); also: cellulose-bound)”, the “Result for incubation with human IgG-Fc” value with human IgG-Fc was 0. In test [1], the “Result for incubation with human plasma” value amounted to 0. Besides, the “Result for incubation with serum albumin” value with serum albumin was 0.
In the case of “10K: cellulose-bound 13-mer variant DCAWHLGELKWCT-(βA)(βA) (DCAWHLGELKWCT-{βAla-βAla-cellulose}; disulfide 2-12 (inferred); reading uncertain; also: printed as DCAWHLGELKWCT-(βA)(βA))”, in the test on human IgG-Fc, the “Result for incubation with human IgG-Fc” value is listed as 0. Also, the “Result for incubation with human plasma” value in test [1] is recorded as 0. In the test on serum albumin, the “Result for incubation with serum albumin” value is 0.
Take “02N: cellulose-bound 13-mer variant DNAWHLGELVWCT-(βA)(βA) (DNAWHLGELVWCT[βAla][βAla]; not fully specified; printed as DNAWHLGELVWCT-(βA)(βA); also: cellulose-bound)”: in the test on human IgG-Fc, the “Result for incubation with human IgG-Fc” value was determined as 0. In test [1], the “Result for incubation with human plasma” value is on record as 0. Further, in the test with serum albumin, the “Result for incubation with serum albumin” value is reported as 0.
